According to PubChem BioAssay (NCI):
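Method: 48-hour compound exposure of cells in 96-well plates, five concentrations, linear interpolation of endpoints. TGI: total growth inhibition.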 *1 amine or outer side, *2 acyl side, *3 side chain or, on linkers, in order; H or OH if unused. Where a SMILES comes first, the peptide text is derived from it. [ ]: non-standard residue; d: D form. The star is where a group is joined. X33 = C=CCC(O[*:1])C(=O)[*:2]; NMeV = CN[CH](C(=O)O)C(C)C; NMeA = CN[CH](C)C(=O)O; Boc = CC(C)(C)OC(=O)*; OBn = c1ccc(CO*)cc1; βAla = NCCC(=O)O

Tests used:
Experiment in all cases: DTP human tumour cell line panel, 48 h
[1] = system: BT-549 breast
[2] = system: CAKI-1 renal
[3] = system: HS 578T breast
[4] = system: LOX IMVI melanoma
[5] = system: OVCAR-3 ovarian
[6] = system: SN12C renal
[7] = system: SNB-75 CNS
[8] = system: SR leukemia
[9] = system: TK-10 renal
[10] = system: UACC-257 melanoma
[11] = system: UACC-62 melanoma
[12] = system: UO-31 renal
[13] = system: M14 melanoma
[14] = system: MALME-3M melanoma
[15] = system: NCI-H226 lung
[16] = system: NCI-H23 lung
[17] = system: OVCAR-8 ovarian
[18] = system: NCI/ADR-RES ovarian

SMILES | TGI [1] [µM] | TGI [2] [µM] | TGI [3] [µM] | TGI [4] [µM] | TGI [5] [µM] | TGI [6] [µM] | TGI [7] [µM] | TGI [8] [µM] | TGI [9] [µM] | TGI [10] [µM] | TGI [11] [µM] | TGI [12] [µM] | TGI [13] [µM] | TGI [14] [µM] | TGI [15] [µM] | TGI [16] [µM] | TGI [17] [µM] | TGI [18] [µM]
CCOC(=O)Nc1nn(C)c(=NCc2ccccc2)s1 | > 100 | > 100 | > 100 | > 100 | > 100 | > 100 | > 100 | > 100 | > 100 | > 100 | > 100 | > 100 |  |  |  |  |  | 
NC(CCCCNC(=O)CNC(=O)OCc1ccccc1)C(=O)NC(CCCCNC(=O)CNC(=O)OCc1ccccc1)C(=O)NC(CCCCNC(=O)CNC(=O)OCc1ccccc1)C(=O)NC(CCCCNC(=O)CNC(=O)OCc1ccccc1)C(=O)NC(CCCCNC(=O)CNC(=O)OCc1ccccc1)C(=O)NC(CCCCNC(=O)CNC(=O)OCc1ccccc1)C(=O)O (centres undefined) | > 75 | > 75 |  | > 75 | > 75 | > 75 | > 75 | > 75 | > 75 | > 75 | > 75 | > 75 | > 75 | > 75 | > 75 | > 75 | > 75 | 
O=C(Cc1ccccc1)NCCCN(CCCCN(CCCNC(=O)Cc1ccccc1)C(=O)OCc1ccccc1)C(=O)OCc1ccccc1 | > 100 |  | > 100 | > 100 | > 100 | > 100 |  | > 100 | > 100 | > 100 | > 100 | 6.42 | > 100 |  | > 100 | > 100 | > 100 | > 100
CCCCCC[C@H]1C(=O)O[C@H](C)[C@H](NC(=O)c2cccc(NC=O)c2OC)C(=O)O[C@@H](C)[C@@H]1OC(=O)CC(C)C (tested in a mixture with another compound) | > 100 | 57.3 | > 100 | > 100 | 22.5 | > 100 |  | 36 | 50.8 | 55.7 | > 100 | > 100 | > 100 | > 100 | > 100 | 48.3 | 30.4 | 84.9
C=CCC1OC(=O)CCNC(=O)C(C)N(C)C(=O)C(C(C)C)N(C)C(=O)C(C(C)CC)NC(=O)C2CCCN2C1=O (centres undefined) (cyclo([X33]PI[NMeV][NMeA][βAla]); configuration not given here) | > 100 | > 100 | > 100 | 5.17 | > 100 | > 100 | > 100 | > 100 | > 100 | 71.6 | 7.43 | 47.5 | > 100 |  |  | > 100 | > 100 | > 100
COC(=O)C1=C(C)NC(C)=C(C(=O)OC)C1c1cccc(NO)c1 | 32.5 | 26.1 | 64.4 | 29.9 | 29.5 | 32.9 |  | > 100 | 27.7 | 27.5 | 34.3 | 23.6 | 33.2 | 29.9 | 40.7 | 33.8 | 30.2 | 42.3
C/C(=N\NC(=S)NC(C)(C)C)c1ccccn1 | > 100 | > 100 | > 100 | > 100 | > 100 | > 88.5 | > 100 |  | > 100 | > 100 | 25.7 | 14.3 | 9.19 | > 79.5 | 16 | > 100 | > 36.6 | > 39.7
c1ccc2cc(CNCCOCCOCCNCc3ccc4ccccc4c3)ccc2c1 | 3.3 | 3.68 | 3.74 | 3.06 | 3.7 | 4.18 | 4.12 | 5.45 | 3.04 | 2.96 | 3.54 |  | 3.89 | 3.9 | 9.9 | 4 | 3.77 | 
O=C(CCCN1CCC2(CC1)CC(=O)N(N1CCCCCC1)C2=O)c1ccc(F)cc1 | > 100 | > 100 | > 100 | > 100 | > 100 | > 100 | > 100 | > 100 | > 100 | > 100 | > 100 | > 100 | > 100 | > 100 |  | > 100 | 34.7 | 37.3
CCOc1ncn(-c2ccc(NC(=S)NC34CC5CC(CC(C5)C3)C4)cc2)n1 | > 100 |  |  | > 100 | > 100 | > 100 | 76.2 | > 100 | > 100 | > 100 | > 100 | > 100 | > 100 |  |  | > 100 | 64.3 | 
COc1ccc(C2(O)c3ccccc3C(=O)N(C)C2(O)c2ccc(OC)cc2)cc1 (centres undefined) | > 100 | > 100 | 29 | > 100 | > 100 | > 100 |  | > 100 | > 100 | > 100 | > 100 | > 100 | > 100 | > 100 |  | > 100 | > 100 | > 100
CC12c3c4cc(Br)cc3Oc3cc(Br)cc(c31)Oc1cc(Br)cc(c12)O4 | 52.7 |  | > 100 | 51.1 | 28.2 | 83.4 | 31.3 | > 100 | > 100 | > 100 | > 100 | > 100 | > 100 | 37.5 | 41.3 | > 100 | > 100 | 58.5
COC(=O)CC(=O)Nc1sccc1S(=O)(=O)c1ccccc1 | > 100 | > 100 | > 100 |  | 43.5 | > 100 | > 100 | > 100 | > 100 | > 100 | > 100 | > 100 | > 100 | > 100 | 95 | > 100 | > 100 | > 100
O=C1/C(=C/c2c(Cl)[nH]c3ccccc23)c2ccccc2N1c1ccccc1 | 21.2 | > 100 | 30.2 | 15.6 | 6.26 | 20.3 | 37.8 | 19.6 | 39.9 | 23.8 | 21.1 | 37.1 | 13 | 18.6 |  | 19.3 | 20.4 | 6.55
CCOP(=O)(OCC)C1=C(c2ccccc2)OC(N)=C(C#N)C1c1ccc(Cl)cc1 (centres undefined) | > 100 | > 100 |  | > 100 | > 100 | > 100 | > 100 | > 100 | > 100 | > 100 | > 100 | > 100 | > 100 | > 100 | > 100 | > 100 | > 100 | > 100
Oc1ccc(/C=C/c2ccc3cccc(O)c3n2)cc1O | 4.03 | > 100 | > 100 | 16.5 | 46 | 12.8 | 9.65 | 18.6 | 90.8 | 47.3 | 23.8 | 7.71 | 7.46 |  |  |  | > 100 | 2.56
CC(C)CC(NC(=O)C(CCI)Cc1ccccc1)C(=O)Nc1ccccc1 (centres undefined) | 66.5 | > 100 |  | > 100 | > 100 | > 100 | > 100 | > 100 | > 100 | > 100 | > 100 | 84.7 | > 100 | > 100 | > 100 | > 100 | > 100 | > 100
CC(NC(=O)C(Cc1ccccc1)NC(=O)C(Cc1ccccc1)NC(=O)OC(C)(C)C)C(=O)OCc1ccccc1 (stereo not drawn) (Boc-Phe-Phe-Ala-OBn; configuration not given here) | > 100 |  | > 100 | > 100 | > 100 | > 100 | > 100 | > 100 | > 100 | > 100 | > 100 | > 100 | > 100 | > 100 | 84 | > 100 | > 100 | > 100
O=C(CNC(=O)OCc1ccccc1)NCCCCC(NC(=O)OCc1ccccc1)C(=O)NC(CCCCNC(=O)CNC(=O)OCc1ccccc1)C(=O)OCc1ccccc1 (centres undefined) | > 62.5 | > 62.5 |  | > 62.5 | > 62.5 | > 62.5 | > 62.5 | > 62.5 | > 62.5 | > 62.5 | > 62.5 | > 62.5 | > 62.5 | > 62.5 | > 62.5 | > 62.5 | > 62.5 | 
O=C(Cc1ccccc1)NNc1nc(NNC(=O)c2ccncc2)nc(Nc2cccc(Cl)c2)n1 | > 10 | > 10 | > 10 | > 10 |  | > 10 | > 10 | > 10 | > 10 | > 10 | > 10 |  | > 10 | > 10 |  | > 10 | > 10 | > 10
O=C1Nc2ccccc2/C1=C/c1c(Cl)[nH]c2ccc(O)cc12 | 18.9 | 36 | > 100 | 27.8 | > 48.1 | 5.22 | 12.4 | 12 | 37.1 | 22.6 | 6.04 | 28.2 | 11 | 15.7 | 5.12 | 13.8 | 12.8 | 
O=C1CCCCC/C1=C\c1ccc(Cl)cc1 | > 100 | > 100 | 57.8 | > 100 | > 100 | > 100 | 81.3 | > 100 | > 100 | > 100 | > 100 | > 100 | > 100 | > 100 | > 100 | > 100 |  | 
O=c1oc2c(ccc3ccccc32)cc1C1=CSC2=NCCN12 | 71.1 | > 100 | > 100 | > 100 | > 100 | > 100 | > 100 | > 100 | > 100 | > 100 | > 100 | > 100 | > 100 | > 100 |  | > 100 | > 100 | > 100
CC1=N[C@](C)(C2CC3C=CC2C3=O)COC1=O (some centres undefined) | > 100 | > 100 | > 100 |  | > 100 | > 100 | > 100 | > 100 | > 100 | > 100 | > 100 | > 100 | > 100 | > 100 | > 100 | > 100 | > 100 | 
COC(=O)C1CCC(=O)N1C(c1ccccc1)c1cc(OC)c(OC)c(OC)c1 (centres undefined) | > 100 | > 100 |  | > 100 | > 100 | > 100 |  | > 100 | > 100 | > 100 | > 100 | > 100 | > 100 | > 100 | > 100 | > 100 | > 100 | > 100
c1ccc(C2OCC(OC3CCCCO3)CO2)cc1 (centres undefined) | > 100 | > 100 | > 100 | > 100 | > 100 | > 100 |  | > 100 | > 100 | > 100 | > 100 | > 100 | > 100 | > 100 | > 100 | > 100 | > 100 | > 100
